Among the test systems are M14 melanoma; LXFL 529 NSCLC; DLD-1 colon; M19-MEL melanoma; DMS 114 small cell lung; HOP-18 NSCLC; KM20L2 colon; XF 498 CNS; SNB-78 CNS; DMS 273 small cell lung; RXF-631 renal.
Holding throughout (assay): NCI tumour cell line growth inhibition, 48 h

The structures appear in SMILES notation.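 Protocol summary: plate cells (96-well), add compound at 5 concentrations, incubate 48 h, interpolate endpoints linearly. TGI: concentration producing complete growth inhibition.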 Where a SMILES comes first, the peptide text is derived from it. The star is where a group is joined. Boc = CC(C)(C)OC(=O)*; OSu = O=C1CCC(=O)N1O* A value given as a limit tells only on which side of the number the result lay.

Turning to `Cc1cn(C2CC(N)C(CN)O2)c(=O)[nH]c1=O` (configuration not stated), the TGI with M14 melanoma was over 100 µM.

For the molecule `Clc1nc(Cl)nc(NC23CC4CC(CC(C4)C2)C3)n1`, the TGI in the experiment with M14 melanoma is 33.6 µM.

For the molecule `CC(=O)C(CN1CCCCC1)C(c1ccccc1)c1c(O)c2ccccc2oc1=O` (configuration not stated), the TGI in the experiment on M14 melanoma is over 100 µM.

As to `CCCCc1c(O)nc(Nc2nc3ccccc3[nH]2)[nH]c1=O`, the TGI with M14 melanoma is over 100 µM.

On to `N#Cc1c(N)[nH]c(=S)c(C#N)c1-c1cccc(Cl)c1`, for which, in the experiment with M14 melanoma, the TGI was over 100 µM.

`CC(=O)NC1C(OCc2ccccc2)OC(CO)C(O)C1OCC(=O)N[C@@H](C)C(=O)N[C@H](CCC(=O)NCCNCCNc1c2ccccc2nc2cccc([N+](=O)[O-])c12)C(N)=O` (some centres not stated) yielded a TGI in the experiment on M14 melanoma of over 100 µM.

As to `O=C1CC(C(O)CO)CC(=O)N1` (configuration not stated), the TGI in the experiment with M14 melanoma is over 100 µM.

Take `COc1ccc2nc(-c3ccc(OCc4ccccc4)cc3)ccc2c1`: the TGI in the experiment on LXFL 529 NSCLC, with M14 melanoma, in the experiment with DLD-1 colon, in the experiment on M19-MEL melanoma, with DMS 114 small cell lung and with HOP-18 NSCLC was over 100 µM each time. Also, the TGI in the experiment on KM20L2 colon, in the experiment on XF 498 CNS and with SNB-78 CNS was over 100 µM throughout.

As for `COc1ccc(N2C(=O)C3c4[nH]c5ccc([N+](=O)[O-])cc5c4C4CCC(C(C)(C)C)CC4C3C2=O)cc1` (configuration not stated), the TGI in the experiment with M14 melanoma was over 100 µM.

With `COc1ccc(-c2c(C#N)c(N)n(C3OC(CO)C(O)C(O)C3O)c(=S)c2C#N)cc1` (configuration not stated), the TGI with M14 melanoma was over 100 µM.

Consider `COc1ccc(C2C(Cl)C(=O)N2NC(=O)c2ccc(NC(C)=O)cc2)cc1` (configuration not stated), for which the TGI with LXFL 529 NSCLC, with M14 melanoma, with DLD-1 colon, in the experiment on M19-MEL melanoma, in the experiment on DMS 273 small cell lung and with KM20L2 colon was over 100 µM throughout. Further, the TGI in the experiment on XF 498 CNS and in the experiment on SNB-78 CNS was over 100 µM each time.

In the experiment on M14 melanoma, `Cc1sc2nc3n(c(=O)c2c1C)N=CN(c1ccccc1)C3` registered a TGI of over 100 µM.

In the experiment with M14 melanoma, `COc1ncc(C=C(C#N)C#N)c(OC)n1` gave a TGI of 40.9 µM.

In turn, `COC(=O)C1(Cc2ccccc2)Cc2cc3c(cc2C1=O)CCC3` (configuration not stated) gave a TGI in the experiment on M14 melanoma of 57.6 µM.

The molecule `O=C1CC(O)c2c1csc2Br` (configuration not stated) displayed a TGI with M14 melanoma of 35.5 µM.

Consider `CC(C)=CCN1CC(C)C(=O)Nc2cc(Cl)ccc21` (configuration not stated), for which the TGI with M14 melanoma worked out at 43.3 µM.

In the experiment on M14 melanoma, `CCOc1ccc(N/C(=C(/C(Cl)=C(/Cl)NCCN)[N+](=O)[O-])n2nnc3ccccc32)cc1` gave a TGI of over 100 µM.

For the molecule `COc1ccc(Nc2[nH]c(C(C)=O)c(N)c2C(=S)Nc2ccccc2)cc1`, the TGI in the experiment with M14 melanoma amounted to 69.3 µM.

`CCOC(=O)c1sc2nc(SC)nc3c2c1N=CN3c1ccc(Br)cc1` came in with a TGI in the experiment on M14 melanoma of over 100 µM.

Take `O=C1CC2C=CC(O)C(C1)C2` (configuration not stated): in the experiment with M14 melanoma, the TGI was over 100 µM.

Consider `Cc1c(Cl)ccc2c(=O)c3cccc(CC(=O)O)c3oc12`, for which the TGI in the experiment with M14 melanoma was over 100 µM.

Turning to `Cc1ccccc1C1OC1C(=O)c1ccccc1N` (configuration not stated), the TGI in the experiment with M14 melanoma was over 100 µM.

In turn, `CC(C)(C)OC(=O)NC(Cc1ccc(O)cc1)C(=O)NC(CCCCN)C(=O)NC(Cc1ccc(O)cc1)C(=O)NC(CCCCN)C(=O)ON1C(=O)CCC1=O` (configuration not stated) (Boc-YKYK-OSu; configuration not given here) gave a TGI in the experiment with M14 melanoma of over 100 µM.

Consider `Cc1c(/C=N\NC(=S)N2CCN(C(=S)N/N=C\c3c(C)n(C)n(-c4ccccc4)c3=O)CC2)c(=O)n(-c2ccccc2)n1C`, for which the TGI with M14 melanoma was over 100 µM.

Turning to `O=c1oc2ccccc2c(O)c1C(c1cc(OCc2ccccc2)cc(OCc2ccccc2)c1)c1c(O)c2ccccc2oc1=O`, the TGI in the experiment with M14 melanoma came out at 23 µM.

In the case of `CCN(CC)CCOC(c1cc(OC)ccc1OC)c1ccc2n1-c1ccccc1OC2` (configuration not stated), the TGI with M14 melanoma came out at 33.2 µM.

As for `COc1ccc(-c2c(C#N)c(S)n(C3OC(COC(C)=O)C(OC(C)=O)C(OC(C)=O)C3OC(C)=O)c(=O)c2C#N)cc1` (configuration not stated), in the experiment with M14 melanoma, the TGI is over 100 µM.

With `Cc1c(Cl)cccc1NC(=O)C(=O)C1C(=O)CC(C)(C)CC1=O`, the TGI with LXFL 529 NSCLC, with M14 melanoma, in the experiment with DLD-1 colon, in the experiment on M19-MEL melanoma, in the experiment on DMS 114 small cell lung and in the experiment with DMS 273 small cell lung was over 100 µM throughout. In addition, the TGI with HOP-18 NSCLC, in the experiment on KM20L2 colon, with SNB-78 CNS and in the experiment with RXF-631 renal was over 100 µM in each case.

With `CC1C(c2cc(C(C)(C)C)c(O)c(C(C)(C)C)c2)c2cc3c(cc2OC1N1CCOCC1)OCO3` (configuration not stated), the TGI in the experiment on M14 melanoma turned out to be 59.3 µM.

In the case of `C=CC(=O)c1ccc2c(c1)OCCOCCOCCOCCOCCO2`, the TGI with LXFL 529 NSCLC stood at 30.8 µM; with M14 melanoma, 41.6 µM; with DLD-1 colon, 30.1 µM; with M19-MEL melanoma, 32.2 µM; with DMS 114 small cell lung, 41 µM; in the experiment on DMS 273 small cell lung, 29.1 µM. Also, the TGI with HOP-18 NSCLC was 30.2 µM; with KM20L2 colon, over 100 µM; in the experiment on XF 498 CNS, 28.7 µM; in the experiment with SNB-78 CNS, 35.2 µM.

With `CC1(C)CC2(C)CC1CC2O` (configuration not stated), the TGI with M14 melanoma was over 100 µM.

Take `CCOC(=O)c1cc(C2(O)CCN(Cc3ccccc3)C2=O)c(-c2cc(C)no2)[nH]1` (configuration not stated): the TGI with M14 melanoma was over 100 µM.

In the case of `Nc1nc2ncc(SCc3ccc(C(=O)NC(CCC(=O)O)C(=O)O)cc3)cc2c(=O)[nH]1` (configuration not stated), the TGI in the experiment with M14 melanoma was over 100 µM.

In the experiment on M14 melanoma, `Cc1cc2c(c(C(=O)NCCC(=O)O)c1)Oc1c(cc(C)cc1C(=O)NCCC(=O)O)S2` yielded a TGI of over 100 µM.

In turn, `CCOP(=O)(OCC)[C@H](O)c1ccsc1` registered a TGI in the experiment with M14 melanoma of over 100 µM.

In the experiment with M14 melanoma, `Cc1ccc(S(=O)(=O)N2CCN3C(=O)c4ccccc4C32c2ccc(F)cc2)cc1` (configuration not stated) yielded a TGI of over 100 µM.

With `N#C/C(=C\NC(=S)Nc1ccc(S(=O)(=O)Nc2ccccn2)cc1)C(N)=O`, the TGI with M14 melanoma was over 100 µM.

Molecule `C[C@]12OC[C@H](c3ccccc3)N1C(=O)C1[C@H]2CC12SCCS2` (some centres not stated) gave a TGI in the experiment on M14 melanoma of over 100 µM.

In the experiment on M14 melanoma, `c1sc(NC2=NCCO2)c2c1CCCC2` showed a TGI of over 100 µM.
